For eight compounds, carcinogen call results are on record in PubChem BioAssay AID1259411 (Chemical Carcinogenesis Research Information System (CCRIS), 2018).

The subject of the data set is rodent carcinogenicity bioassays, tumor incidence. Briefly: CCRIS carcinogenicity studies. The procedure, abridged: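 Archive of carcinogenicity, mutagenicity, tumor promotion and tumor inhibition results drawn from journals, NCI reports and other sources, expert-reviewed; covers 1985-2011 and is no longer updated.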

Activity calls are given as the source filed them. No rule for the calls is given here.

Turning to `C1CCOC1`, the carcinogen call (Species: MOUSE, Strain/Sex: B6C3F1/FEMALE, Route: INHALATION, Dose: 0, 200, 600, 1800 PPM 6HR/D 5 D/WK FOR 105 WK (STUDY DURATION: 105 WK), Dose: 0, 200, 600, 1800 PPM 6HR/D 5 D/WK FOR 105 WK (STUDY DURATION: 105 WK), Tumor Site: Type of Lesion: LIVER: ADENOMA OR CARCINOMA) was “active; positive”; the carcinogen call (Species: MOUSE, Strain/Sex: B6C3F1/FEMALE, Route: INHALATION, Dose: 0, 200, 600, 1800 PPM 6 HR/D 5 D/WK FOR 105 WK (STUDY DURATION: 105 WK), Dose: 0, 200, 600, 1800 PPM 6 HR/D 5 D/WK FOR 105 WK (STUDY DURATION: 105 WK), Tumor Site: Type of Lesion: LIVER: HEPATOCELLULAR ADENOMA, HEPATOCELLULAR CARCINOMA) is “active; positive”; the carcinogen call (Species: MOUSE, Strain/Sex: B6C3F1/MALE, Route: INHALATION, Dose: 0, 200, 600, 1800 PPM 6 HR/D 5 D/WK FOR 105 WK (STUDY DURATION: 105 WK), Dose: 0, 200, 600, 1800 PPM 6 HR/D 5 D/WK FOR 105 WK (STUDY DURATION: 105 WK)) is “inactive; negative”; the carcinogen call (Species: RAT, Strain/Sex: F344/FEMALE, Route: INHALATION, Dose: 0, 200, 600, 1800 PPM 6 HR/D 5 D/WK FOR 105 WK (STUDY DURATION: 105 WK), Dose: 0, 200, 600, 1800 PPM 6 HR/D 5 D/WK FOR 105 WK (STUDY DURATION: 105 WK)) was “inactive; negative”; the carcinogen call (Species: RAT, Strain/Sex: F344/MALE, Route: INHALATION, Dose: 0, 200, 600, 1800 PPM 6 HR/D 5 D/WK FOR 105 WK (STUDY DURATION: 105 WK), Dose: 0, 200, 600, 1800 PPM 6 HR/D 5 D/WK FOR 105 WK (STUDY DURATION: 105 WK), Tumor Site: Type of Lesion: KIDNEY: RENAL TUBULE ADENOMA OR CARCINOMA) was “active; positive”.

As for `Cc1c[nH]c(=O)[nH]c1=O`, the carcinogen call (Species: RAT, Strain/Sex: F344/MALE, Route: ORAL, Dose: 0, 1, 3% IN DIET FOR 36 WK (STUDY DURATION: 40 WK), Dose: 0, 1, 3% IN DIET FOR 36 WK (STUDY DURATION: 40 WK), Tumor Site: Type of Lesion: BLADDER: PAPILLOMA, CARCINOMA) was “active; positive”.

For `O=NN1CCCOC1`, the carcinogen call (Species: RAT, Strain/Sex: F344/FEMALE, Route: ORAL, Dose: 40 MG/L IN DRINKING WATER FOR 50 WK, Tumor Site: Type of Lesion: LIVER: HEPATOCELLULAR CARCINOMA, HEMANGIOENDOTHELIAL SARCOMA) is “active; positive”.

As for `COc1ccc(N)c(OC)c1`, the carcinogen call is “inactive; negative” (Species: MOUSE, Strain/Sex: B6C3F1/FEMALE, Route: ORAL, Dose: 0, 2500, 5000 PPM IN DIET, Dose: 0, 2500, 5000 PPM IN DIET); “inactive; negative” (Species: MOUSE, Strain/Sex: B6C3F1/MALE, Route: ORAL, Dose: 0, 2500, 5000 PPM IN DIET, Dose: 0, 2500, 5000 PPM IN DIET); “inactive; negative” (Species: RAT, Strain/Sex: F344/FEMALE, Route: ORAL, Dose: 0, 1500, 3000 PPM IN DIET, Dose: 0, 1500, 3000 PPM IN DIET); “inactive; negative” (Species: RAT, Strain/Sex: F344/MALE, Route: ORAL, Dose: 0, 1500, 3000 PPM IN DIET, Dose: 0, 1500, 3000 PPM IN DIET).

As to `CC(C)CCCCCCOC(=O)c1ccccc1C(=O)OCCCCCCC(C)C`, the carcinogen call reads like this: (Species: RAT, Strain/Sex: F344/FEMALE, Route: ORAL, Dose: 0, 0.03, 0.3, 0.6% IN DIET FOR DURATION OF STUDY (STUDY DURATION: 24 MO), Dose: 0, 0.03, 0.3, 0.6% IN DIET FOR DURATION OF STUDY (STUDY DURATION: 24 MO)) “inactive; negative”; (Species: RAT, Strain/Sex: F344/MALE, Route: ORAL, Dose: 0, 0.03, 0.3, 0.6% IN DIET FOR DURATION OF STUDY (STUDY DURATION: 24 MO), Dose: 0, 0.03, 0.3, 0.6% IN DIET FOR DURATION OF STUDY (STUDY DURATION: 24 MO)) “inactive; negative”.

In the case of `O=[N+]([O-])c1ccc(O)cc1`, the carcinogen call is, setting by setting: (Species: MOUSE, Strain/Sex: SWISS/FEMALE, Route: DERMAL, Dose: 0, 40, 80, 160 MG/KG IN ACETONE 3 D/WK FOR 78 WK (STUDY DURATION: 18 MO), Dose: 0, 40, 80, 160 MG/KG IN ACETONE 3 D/WK FOR 78 WK (STUDY DURATION: 18 MO)) “inactive; negative”; (Species: MOUSE, Strain/Sex: SWISS/MALE, Route: DERMAL, Dose: 0, 40, 80, 160 MG/KG IN ACETONE 3 D/WK FOR 78 WK (STUDY DURATION: 18 MO), Dose: 0, 40, 80, 160 MG/KG IN ACETONE 3 D/WK FOR 78 WK (STUDY DURATION: 18 MO)) “inactive; negative”.

On to `NC1=NCN([C@@H]2O[C@H](CO)[C@@H](O)[C@H]2O)C(=O)N1`, for which the carcinogen call (Species: RAT, Strain/Sex: F344/MALE, Route: INTRAPERITONEAL, Dose: 0, 50 MG/KG IN 0.9% SALINE 3/WK FOR 1 YR (STUDY DURATION: 1 YR)) was “inactive; negative”.

On to `O[C@@H]1C=CC=C[C@H]1O`, for which the carcinogen call reads like this: (Species: MOUSE, Strain/Sex: SWISS/FEMALE, Route: INTRAPERITONEAL, Dose: 0, 10, 50 UMOL ADMINISTERED AS 3 UNEQUAL DOSES (1/7, 2/7, AND 4/7 OF THE TOTAL DOSE) OVER A 2-WK PERIOD (STUDY DURATION:, Dose: 0, 10, 50 UMOL ADMINISTERED AS 3 UNEQUAL DOSES (1/7, 2/7, AND 4/7 OF THE TOTAL DOSE) OVER A 2-WK PERIOD (STUDY DURATION:) “inactive; negative”; (Species: MOUSE, Strain/Sex: SWISS/MALE, Route: INTRAPERITONEAL, Dose: 0, 10, 50 UMOL ADMINISTERED AS 3 UNEQUAL DOSES (1/7, 2/7, AND 4/7 OF THE TOTAL DOSE) OVER A 2-WK PERIOD (STUDY DURATION:, Dose: 0, 10, 50 UMOL ADMINISTERED AS 3 UNEQUAL DOSES (1/7, 2/7, AND 4/7 OF THE TOTAL DOSE) OVER A 2-WK PERIOD (STUDY DURATION:) “inactive; negative”.
